Among the data in US11325896B2, “Antagonists of the muscarinic acetylcholine receptor M4” (Vanderbilt University, priority 2017, dated 2022) are remaining activity and IC50 values, retold here.

For this assay, the target named is T1, human mAChR M4 (Homo sapiens, UniProt P08173).
T1 construct: expressed in transfected cells; host or cells: CHO-K1 (ATCC), stably co-expressing the chimeric G protein Gqi5
T1 sequence (P08173 1-479): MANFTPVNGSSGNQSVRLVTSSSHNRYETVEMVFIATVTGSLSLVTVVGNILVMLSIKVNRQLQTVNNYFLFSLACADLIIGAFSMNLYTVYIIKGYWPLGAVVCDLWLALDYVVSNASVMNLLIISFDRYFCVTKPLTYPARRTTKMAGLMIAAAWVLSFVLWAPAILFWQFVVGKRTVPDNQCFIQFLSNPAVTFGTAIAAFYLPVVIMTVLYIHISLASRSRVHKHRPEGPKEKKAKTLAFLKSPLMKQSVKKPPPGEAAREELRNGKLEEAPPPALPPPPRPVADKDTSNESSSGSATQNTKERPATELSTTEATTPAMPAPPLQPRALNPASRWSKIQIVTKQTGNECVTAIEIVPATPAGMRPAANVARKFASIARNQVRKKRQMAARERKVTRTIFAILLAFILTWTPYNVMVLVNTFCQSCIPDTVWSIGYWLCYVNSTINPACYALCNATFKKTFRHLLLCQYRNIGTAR
The experiment in a line: mAChR M4 cell-based functional assay (calcium flux, decrease of EC80 acetylcholine response). The note with it: for remaining activity at 30 µM: % ACh maximum at 30 μM, human M4, read-out: Emin; for IC50: M4/Gqi5/CHO-K1 cells, decrease of response to EC80 acetylcholine. As for the experimental part:
Human or rat M4 cDNA, along with the chimeric G protein Gqi5, were transfected into Chinese hamster ovary (CHO-K1) cells purchased from the American Type Culture Collection using Lipofectamine2000. M4/Gqi5/CHO cells were grown in Ham's F-12 medium containing 10% heat-inactivated fetal bovine serum (FBS), 20 mM HEPES, 500 μg/mL G418 sulfate, and 200 μg/mL Hygromycin B.
For high throughput measurement of agonist-evoked increases in intracellular calcium, CHO-K1 cells stably expressing muscarinic receptors were plated in growth medium lacking G418 and hygromycin at 15,000 cells/20 μL/well in Greiner 384-well black-walled, tissue culture (TC)-treated, clear-bottom plates (VWR). Cells were incubated overnight at 37° C. and 5% CO2. The next day, cells were washed using an ELX 405 (BioTek) with assay buffer: the final volume was then aspirated to 20 μL. Next, 20 μL of a 2.3 μM stock of Fluo-4/acetoxymethyl ester (Invitrogen, Carlsbad, Calif.), prepared as a 2.3 mM stock in DMSO and mixed in a 1:1 ratio with 10% (w/v) Pluronic F-127 and diluted in assay buffer, was added to the wells and the cell plates were incubated for 50 min at 37° C. and 5% CO2. Dye was removed by washing with the ELX 405 and the final volume was aspirated to 20 μL. Compound master plates were formatted in a 10 point concentration-response curve (CRC) format (1:3 dilutions) in 100% DMSO with a starting concentration of 10 or 1 mM using a BRAVO liquid handler (Agilent). Test compound CRCs were then transferred to daughter plates (240 nL) using the Echo acoustic plate reformatter (Labcyte, Sunnyvale, Calif.) and then diluted into assay buffer (40 μL) to a 2× stock using a Thermo Fisher Combi (Thermo Fisher Scientific, Waltham, Mass.).
Calcium flux was measured using the Functional Drug Screening System (FDSS) 6000 or 7000 (Hamamatsu Corporation, Tokyo, Japan) as an increase in the fluorescent static ratio. Compounds were applied to cells (20 μL, 2×) using the automated system of the FDSS at 2 seconds into the protocol and the data were collected at 1 Hz. At 143 s, 10 μL of an EC20 concentration of the muscarinic receptor agonist acetylcholine was added (5×), followed by the addition of 12 μL of an EC80 concentration of acetylcholine at the 268 s time point (5×). Agonist activity was analyzed as a concentration-dependent increase in calcium mobilization upon compound addition. Positive allosteric modulator activity was analyzed as a concentration-dependent increase in the EC20 acetylcholine response. Antagonist activity was analyzed as a concentration-dependent decrease in the EC80 acetylcholine response; for the purposes of the tables herein, an IC50 (inhibitory concentration 50) was calculated as a concentration-dependent decrease of the response elicited by an EC80 concentration of acetylcholine. Concentration-response curves were generated using a four-parameter logistical equation in XLFit curve fitting software (IDBS, Bridgewater, N.J.) for Excel (Microsoft, Redmond, Wash.) or Prism (GraphPad Software, Inc., San Diego, Calif.) or the Dotmatics software platform (Dotmatics, Bishop's Stortford, UK).
Compounds were synthesized as described above. Activity (IC50 and Emin) was determined in the mAChR M4 cell-based functional assay as described above and the data are shown in Table 4. The compound numbers correspond to those used in Examples 1-4 and Tables 1-3.

Consider `CC(=O)Nc1ccc(-c2ccc(NC3CC4(C3)CN(CCC(C)(C)C)C4)nn2)cc1` [Compound 1, N-(4-(6-((2-(3,3-Dimethylbutyl)-2-azaspiro[3.3]heptan-6-yl)amino)pyridazin-3-yl)phenyl)acetamide], for which the remaining activity at 30 µM is 9.8% and the IC50 (as a rule, the concentration needed to halve the response being measured) amounted to 1310 nM.

On to `Cc1nn(C)cc1-c1ccc(NC2CC3(C2)CN(CC2CCOCC2)C3)nn1` [Compound 2, N-(6-(1,3-dimethyl-1H-1-pyrazol-4-yl)pyridazin-3-yl)-2-((tetrahydro-2H-pyran-4-yl)methyl)-2-azaspiro[3.3]heptan-6-amine], for which the remaining activity at 30 µM worked out at 46.5% and the IC50 came to 10000 nM.

For the compound `Fc1ccc(Cl)c(-c2ccc(NC3CC4(C3)CN(CC3CC5C=CC3C5)C4)nn2)c1` (stereo not shown) [Compound 3, 2-(bicyclo[2.2.1]hept-5-en-2-ylmethyl)-N-(6-(2-chloro-5-fluorophenyl)pyridazin-3-yl)-2-azaspiro[3.3]heptan-6-amine], the remaining activity at 30 µM came out at 4% and the IC50 was 100 nM.

Take `CC(C)(C)CCN1CC2(CC(Nc3ccc(-c4cc(F)ccc4Cl)nn3)C2)C1` [Compound 4, N-(6-(2-chloro-5-fluorophenyl)pyridazin-3-yl)-2-(3,3-dimethylbutyl)-2-azaspiro[3.3]heptan-6-amine]: the remaining activity at 30 µM was 2.8% and the IC50 was 160 nM.

On to `Fc1ccc(Cl)c(-c2ccc(NC3CC4(C3)CN(CC3CCCCC3)C4)nn2)c1` [Compound 5, N-(6-(2-chloro-5-fluorophenyl)pyridazin-3-yl)-2-(cyclohexylmethyl)-2-azaspiro[3.3]heptan-6-amine], for which the remaining activity at 30 µM worked out at 3.1% and the IC50 was found to be 210 nM.

Take `Fc1ccc(Cl)c(-c2ccc(NC3CC4(C3)CN(CC3CCCOC3)C4)nn2)c1` (stereo not shown) [Compound 6, N-(6-(2-chloro-5-fluorophenyl)pyridazin-3-yl)-2-((tetrahydro-2H-pyran-3-yl)methyl)-2-azaspiro[3.3]heptan-6-amine]: the remaining activity at 30 µM was 5.4% and the IC50 was determined as 2480 nM.

For the compound `Fc1ccc(Cl)c(-c2ccc(NC3CC4(C3)CN(CC3CCOCC3)C4)nn2)c1` [Compound 7, N-(6-(2-chloro-5-fluorophenyl)pyridazin-3-yl)-2-((tetrahydro-2H-pyran-4-yl)methyl)-2-azaspiro[3,3]heptan-6-amine], the remaining activity at 30 µM was found to be 7.8% and the IC50 was 2270 nM.

On to `Fc1ccc(Cl)c(-c2ccc(NC3CC4(C3)CN(CC35CC6CC(CC(C6)C3)C5)C4)nn2)c1` [Compound 8, 2-(adamantan-1-ylmethyl)-N-(6-(2-chloro-5-fluorophenyl)pyridazin-3-yl)-2-azaspiro[3.3]heptan-6-amine], for which the remaining activity at 30 µM was determined as 3.8% and the IC50 is 150 nM.

Turning to `Cc1nn(C)cc1-c1ccc(NC2CC3(C2)CN(CCC(C)(C)C)C3)nn1` [Compound 9, N-(6-(1,3-dimethyl-1H-pyrazol-4-yl)pyridazin-3-yl)-2-(3,3-dimethylbutyl)-2-azaspiro[3.3]heptan-6-amine], the remaining activity at 30 µM turned out to be 12.4% and the concentration for half-maximal inhibition (IC50) was 2890 nM.

As to `Cc1cnn(C)c1-c1ccc(NCC2CC3(C2)CN(CCC(C)(C)C)C3)nn1` [Compound 11, 6-(1,4-Dimethyl-1H-pyrazol-5-yl)-N-((2-(3,3-dimethylbutyl)-2-azaspiro[3.3]heptan-6-yl)methyl)pyridazin-3-amine], the remaining activity at 30 µM came out at 6.5% and the IC50 came out at 1350 nM.

`Cc1nn(C)cc1-c1ccc(NCC2CC3(C2)CN(CC2CC4C=CC2C4)C3)nn1` (stereo not shown) [Compound 12, N-((2-(bicyclo[2.2.1]hept-5-en-2-ylmethyl)-2-azaspiro[3.3]heptan-6-yl)methyl)-6-(1,3-dimethyl-1H-pyrazol-4-yl)pyridazin-3-amine]: the remaining activity at 30 µM is 3.6% and the 50% inhibitory concentration (IC50) was found to be 700 nM.
